Values joined by “and” are separate entries in the source; they are usually repeats but may differ in a detail not shown here. Identical values can stand only once.
Each molecule was assayed on P. falciparum 3D7 growth, pLDH absorbance (assay: blood-stage malaria parasite growth potency – strain 3D7, dose response (AID 2305)).

| Structure (SMILES) | IC50 |
| --- | --- |
| COc1ccccc1NC(=O)c1cc(C(=O)c2cc(Cl)ccc2O)cn(-c2ccccc2OC)c1=O | 940 nM |
| CC(=O)Nc1ccc(CNC2Cc3ccc(-c4ccc(Cl)c(Cl)c4)cc3C2)cc1 (stereo not given) | 1000 nM |
| CN(C)c1ccc(-c2ccc(C(=O)NC3CCN(Cc4ccccc4)CC3)s2)cc1 | 1050 nM |
| Cc1cc(N[C@@H](CC(C)C)C(=O)NC2CCCC2)nc(NCCc2ccc(F)cc2)n1 | 790 nM |
| Cc1ccc(NC(=O)c2ccc(NCCCN3CC(C)CC(C)C3)c([N+](=O)[O-])c2)cc1F (stereo not given) | 710 nM |
| N#Cc1cccc(NC(=O)Nc2cccc(-c3cccc(-c4nc5ccc(F)cc5[nH]4)c3)c2)c1 | 230 nM |
| Cn1c(=N)n(CC(=O)OCc2ccc(OCc3ccccc3)cc2)c2ccccc21 | 80 nM |
| O=C(Nc1ccc(Cl)cc1)c1cc(Cl)cc2[nH]c(C(F)(F)F)nc12 | 130 nM |
| O=C(Nc1ccc(-c2nc3ccccc3[nH]2)cc1)c1cccc(S(=O)(=O)N2CCOCC2)c1 | 900 nM |
| O=C(Nc1ccc(Cl)cc1)Nc1ccc(-c2csc(-c3nc4ccccc4[nH]3)c2)cc1 | 800 nM |
| COc1ccc2nccc([C@@H](O)CN3CCC(NCc4nc5c([N+](=O)[O-])cccc5[nH]4)CC3)c2c1 | 710 nM |
| COc1cc(F)c2ncc(F)c(CCN3C[C@H](CNCc4ccc5c(n4)NC(=O)CS5)[C@H](O)C3)c2c1 | 460 nM |
| CC(=O)Nc1ccc(CN(C)C2CCN(c3cc(NC(=O)c4cccc(C)c4)ccn3)CC2)cc1 | 900 nM |
| COc1ccc2nccc([C@@H](O)CN3CCC(NC(=O)c4ccc5cc[nH]c5c4)CC3)c2c1 | 970 nM |
| CCCCCCCCn1c2c(c(=N)c3c1CCC3)CCC2 | 220 nM |
| CN(Cc1ccccc1)C(=O)c1nn(CCCN2CCC(N3CCCC3)CC2)cc1-c1ccc(Cl)c(Cl)c1 | 770 nM |
| Cc1cccc2[nH]c(-c3ccc(-c4cccc(NC(=O)C(=O)c5cccn5C)c4)cc3)nc12 | 980 nM |
| Cc1c(C(=O)NCc2ccncc2)sc2nc(-c3cccc([N+](=O)[O-])c3)cn12 | 910 nM |
| CC(C)(C)c1cc(/C=C/C(=O)NC2CCC(CN3CCC(c4c[nH]c5ccccc45)CC3)CC2)cc(C(C)(C)C)c1O (stereo not given) | 720 nM and 700 nM |
| OC1(c2ccccc2)CCN(Cc2cccc(-c3c[nH]c4nc(NC5CCCC5)ncc34)c2)C1 (stereo not given) | 910 nM |
| N#Cc1cncc(-c2nc3c(N4CCC(Cc5ccccc5)CC4)cccc3n2C2CCNC2)c1 (stereo not given) | 990 nM |
| Cc1ccc(NC(=O)c2ccc3ncccc3c2)cc1OC1CCN(C(C)C)C1 (stereo not given) | 990 nM |
| Cc1cc(C(=O)CN2C(=O)NC3(CCOc4ccccc43)C2=O)c(C)n1Cc1ccc(F)cc1 (stereo not given) | 880 nM |
| Cc1ccc2nc(-c3ccc(C=CC(=O)NC4CCN(Cc5ccccc5)CC4)cc3)[nH]c2c1 | 680 nM |
| C[C@H](NC(=O)c1cc(-c2ccc(C(C)(C)C)cc2)no1)C(=O)O (tested in a mixture with another compound) | 140 nM |

| Structure (SMILES) | IC50 |
| --- | --- |
| Cc1ccc(Nc2nc(C)cc(NC3CCN(C)CC3)n2)cc1 | 500 nM |
| CC(C)C[C@H]1c2[nH]c3ccc(Cl)cc3c2CCN1C(=O)CCc1ccccc1 | 880 nM |
| Nc1nc(N)c2c(ccc3nn(Cc4ccccc4)cc32)n1 | 210 nM |
| CC1CC(NCCCNc2cc(=O)c3ccccc3[nH]2)c2c1cc(Cl)c(Cl)c2Cl (stereo not given) | 840 nM |
| c1ccc(CN2CCC(NCc3ccccc3-c3ccc(CNC4CCCC4)cc3)CC2)cc1 | 910 nM |
| Cc1ccccc1OCCCc1c(C)nc(N)nc1N | 280 nM |
| COc1ccc(Nc2nc(C)cc(NC3CCCC3)n2)cc1 | 870 nM |
| O=C(Nc1cccc(-c2ccc(-c3nc4ccc(C(F)(F)F)cc4[nH]3)cc2)c1)c1ccncc1 | 340 nM |
| CN1CCC=C(C(=O)NCC(C)(C)c2nc(-c3ccc(Cl)c(O)c3)c(-c3ccncc3)[nH]2)C1 | 1000 nM |
| CN1CCC(N2CCC(Oc3cccc(C(=O)NCCCC4CCCC4)c3)CC2)CC1 | 840 nM |
| N#Cc1ccc2c(c1)CCN(CCC1CCC(NC(=O)/C=C/c3ccc4[nH]ccc4c3)CC1)CC2 (stereo not given) | 1060 nM |
| COc1ccccc1-c1cccc(Nc2c(Nc3ccc(Cl)cc3)c(=O)c2=O)c1 | 880 nM |
| COc1cc(C(=O)N2CCOC(CCN3CCC[C@H]3C(=O)Nc3ccccc3)(c3ccc(Cl)c(Cl)c3)C2)cc(OC)c1OC (stereo not given in full) | 730 nM |
| COc1ccccc1C1CC(c2ccc(C)cc2)=NN1C(=O)c1ccccc1 (stereo not given) | 890 nM |
| O=C(Nc1ccccc1)N1CCOC(CCN2CCC(F)(F)CC2)(c2ccc(Cl)c(Cl)c2)C1 (stereo not given) | 190 nM |
| O=C(Nc1cccc(-c2ccc(-c3nc4ccc(F)cc4[nH]3)cc2)c1)c1ccncc1 | 280 nM |
| CCS[C@@H]1O[C@H](COC(=O)c2ccccc2)[C@H](OC(=O)c2ccccc2)[C@H](OC(=O)c2ccccc2)[C@H]1OC(=O)c1ccccc1 | 810 nM |
| Cc1cc(CN2CCC(N3CC(c4ccccc4)(c4ccccc4)OCC3=O)C2)ccc1O (stereo not given) | 1080 nM |
| CCCC(=O)NC(c1cccs1)c1cc(Cl)c2cccnc2c1O (stereo not given) | 850 nM |
| c1cc(CNc2ncc(-c3ccsc3)c(-c3nccs3)n2)ccn1 | 360 nM |
| Cc1cc(N[C@@H](CC(C)C)C(=O)NCc2cccs2)nc(Nc2ccccc2)n1 | 1130 nM |
| CCCNCc1ccc(-c2ccc(CNC3Cc4ccccc4C3)cc2)nc1 | 850 nM |
| CS(=O)(=O)NCCCNCc1cccc(-c2cccc(-c3nc4ccc(C(F)(F)F)cc4[nH]3)c2)c1 | 470 nM |
| O=C(Nc1ccnc2ccccc12)NC1CCN(CCc2ccccc2)CC1 | 360 nM |
| Cc1cc(N2CCN(C3CCCCC3)CC2)nc2cccc(O)c12 | 700 nM |

| Structure (SMILES) | IC50 |
| --- | --- |
| Cc1cc(N[C@@H](CC(C)C)C(=O)NCc2cccs2)nc(NCCc2ccc(F)cc2)n1 | 800 nM |
| CC1CCC(NCc2c(O)ccc3ccccc23)CC1 (stereo not given) | 770 nM |
| CCNc1cc(C(=O)N[C@@H](Cc2ccccc2)[C@H](O)CNC(C)(C)c2cccc(OC)c2)cc(N2CCCC2=O)c1 | 140 nM |
| CCOC(=O)COc1cccc(CNc2ccc3nc(N)nc(N)c3c2)c1 | 410 nM |
| CS(=O)(=O)Cc1ccc(Nc2ncc(Cl)c(Nc3cccnc3C(N)=O)n2)cc1 | 870 nM |
| Nc1nc(N)c2c(ccc3c2ccn3CCCF)n1 | 150 nM |
| Nc1nc(N)c2cc(NS(=O)(=O)c3ccc(-c4ccccc4)cc3)ccc2n1 | 700 nM |
| Oc1ccc2[nH]c(-c3cccc(F)c3)nc2c1CN1CCC(O)(c2ccccc2)CC1 | 990 nM |
| CC[C@H]1CN(Cc2ccccc2Br)CC[C@H]1CCCc1ccnc2ccc(O)cc12 | 1000 nM |
| Fc1cccc(COc2ccc(Nc3ncnc4ccc(C#C[C@H]5CCCN5)cc34)cc2Cl)c1 | 880 nM |
| CC(C)(CNCc1ccc(Cl)cc1)c1nc(-c2ccc(Cl)c(O)c2)c(-c2ccncc2)[nH]1 | 480 nM |
| COC(=O)C1=C(C)NC2=C(C(=O)CC(c3ccc(OC)c(OC)c3)C2)C1c1cccc(O)c1 (stereo not given) | 730 nM |
| O=[N+]([O-])c1cnc(Nc2ccccc2O)nc1Nc1ccccc1O | 900 nM |
| CN1CCN(c2ccnc3ccc(NC(=O)Nc4ccc5c(c4)CCC5=O)cc23)CC1 | 330 nM |
| CS(=O)(=O)c1ccc(OCCCN(Cc2ccccc2C(F)(F)F)c2ccc(C#N)c(C(F)(F)F)c2)cc1 | 1020 nM |
| O=C(/C=C/c1ccc(Cl)c(Cl)c1)NCCCCCN1CCC(NC(=O)Nc2ccc(Cl)c(Cl)c2)CC1 | 890 nM |
| COC(=O)/C=C/c1ccc(CC(C)NCC(O)c2cccc(Br)c2)cc1 (stereo not given) | 720 nM |
| Cc1c(-c2ccccc2)ccc2[nH]cc(CC#N)c12 | 700 nM |
| O=C(Nc1cccc(C2=NCCN2)c1)Nc1cccc(C2=NCCN2)c1 | 420 nM |
| Fc1ccccc1C=NNc1ccnc2ccccc12 | 890 nM |
| CC1(C)S(=O)(=O)CC(O)CS1(=O)=O | 470 nM |
| CC(N)(Cc1ccc(O)cc1)c1nn[nH]n1 (stereo not given) | 970 nM |
| O=C(NCc1cccc(F)c1)c1ccc(O)c(-c2cc(Cl)cc(Cl)c2)c1 | 560 nM |
| N#Cc1ccc(CN2CCCN(Cc3cccc(NC(=O)c4ccc(Cl)c(Cl)c4)c3)CC2)cc1 | 850 nM |
| O=C(Nc1cccc(Cl)c1)N[C@H]1CCN(Cc2ccc(OCCCN3CCCCC3)cc2)C1 | 730 nM |

| Structure (SMILES) | IC50 |
| --- | --- |
| COc1ccc2nccc([C@@H](O)CN3CCC(NCCOc4cc(F)cc(F)c4)CC3)c2c1 | 160 nM |
| CCN(CC)CCCN(Cc1ccc(-c2ccc(C(F)(F)F)cc2)cc1)C(=O)Cn1c(SCc2cccc(F)c2F)cc(=O)c2ccccc21 | 1320 nM |
| Cc1cc(N(C)C2CCN(CC3CCCCC3)C2)nc(Nc2ccc(Br)cc2)n1 (stereo not given) | 700 nM |
| N=C(N)c1ccc(C=Cc2ccc(C(=N)N)cc2O)cc1 | 100 nM |
| CN1CCCc2cc(NC(=O)C=Cc3ccc(-c4ccc(F)cc4F)o3)ccc2C1 | 780 nM |
| CC(C)CNC(=O)c1cncc(-c2cccc(CNC3Cc4ccccc4C3)c2)c1 | 790 nM |
| Nc1nc(N)c2c(n1)CCC(c1ccccc1)C2 (stereo not given) | 1010 nM |
| COc1cc2nc(N(C)CC3COc4ccccc4O3)nc(N)c2cc1OC (stereo not given) | 1550 nM |
| O=C(COc1cccc([N+](=O)[O-])c1)Nc1ccc(-c2nc3ccccc3[nH]2)cc1 | 750 nM |
| CC(C)CN1CCC(COc2ccc3ncn(-c4cc(O[C@H](C)c5ccccc5C(F)(F)F)c(C(N)=O)s4)c3c2)CC1 | 620 nM |
| Nc1ncc(-c2ccc3ncccc3c2)c(N)n1 | 920 nM |
| COc1ccc(CNC2CCN(C)CC2)cc1-c1ccc(OC)c(S(=O)(=O)NCc2ccccc2)c1 | 950 nM |
| COc1cc(OC)cc(-c2nn(-c3ccc([N+](=O)[O-])cc3Cl)c(=S)n2CC2CCCO2)c1 (stereo not given) | 960 nM |
| Clc1ccc(Cl)c2[nH]c(CNCCCNc3nc4ccccc4[nH]3)cc12 | 160 nM |
| CC(C)NCc1ccc(-c2cccc(-c3nc4ccc(C(F)(F)F)cc4[nH]3)c2)cc1 | 260 nM |
| Nc1cc(C=Cc2ccc(O)cc2)nc2ccccc12 | 990 nM |
| COc1ccc2c(NN=Cc3ccccc3)cc(C)nc2c1 | 850 nM |
| O=C(Nc1ccc(-c2ccccc2)cc1)Nc1cccc(Cn2nc(Cl)c(N3CCNCC3)cc2=O)c1 | 370 nM |
| NCc1cccc(-c2cccc(CNC3CCN(Cc4ccccc4)CC3)c2)c1 | 720 nM |
| Cc1cccc(-c2nc(Nc3ccncc3)c3cc(N(C)C)ccc3n2)n1 | 710 nM |
| CN(Cc1ccc(-c2ccc(C(F)(F)F)cc2)cc1)C(=O)Cn1c(CCc2cccc(F)c2F)cc(=O)c2ccc(OCCCN3CCCCC3)cc21 | 710 nM |
| COc1cccc(NC(=O)Nc2ccc(Nc3nc(C)cc(N4CCCC4)n3)cc2)c1 | 200 nM |
| COc1cc2nc(NCCCOC(C)C)n3nc(-c4ccccc4)nc3c2cc1OC | 200 nM |
| N#Cc1cccc([C@H](O)[C@@H]2CN(CCC3CCCCC3)CC[C@@]2(O)c2ccccc2)c1 | 130 nM |
| O=C(Nc1ccc2c(c1)OCO2)c1cc(-c2cccnc2)nc2ccc(Cl)cc12 | 520 nM |

From PubChem BioAssay AID2305 (GlaxoSmithKline (GSK), 2010)
